From patent US11098041B2 (Merck Patent GmbH, priority 2014, dated 2021)

How the values were obtained:
[1] = target: full-length human BTK (Homo sapiens (Human), UniProt Q06187); assay: Assay A: microfluidic off-chip mobility shift assay against BTK enzyme; format: biochemical
[2] = tested on: anti-IgM-induced expression of CD69 on CD19 positive cells (B cells) in human PBMCs; assay: Assay C: PBMC IC50 assay (anti-IgM-induced CD69 expression); format: cell-based; conditions: anti-IgM stimulation
Procedure: Btk is critical for mediating the signalling of B cell antigen receptor (BCR) after anti-IgM stimulation. Based on this principle, a functional cell-based assay was established to determine the potency of compounds at inhibiting anti-IgM-induced expression of CD69, a downstream BCR signaling event, in freshly isolated human peripheral blood mononuclear cells (PBMCs). In the assay, a 90 μl PBMC suspension containing 2.5×10^5 cells was pre-treated with 10 μl of test compound at various concentrations for an hour, and then incubated overnight (approximately 16-18 hours) with 5 μl 420 μg/ml affiniPure F(ab′)2 fragment goat anti-human IgM Fc fragment per well (Dianova, Cat. No.: 109-006-129). After the incubation, the cells were washed and immunostained with an APC-labeled mouse anti-human CD69 (BD Biosciences; clone: FN50), a PerCP-Cy5.5 labelled mouse anti-human CD19 (BD Biosciences; clone: SJ25C1) and a FITC-labelled mouse anti-human CD3 (BD Biosciences; clone: HIT3a), and fixed for flow cytometric analysis of CD69 expression on CD19 positive cells (B cells). The percentage of CD69 expressing CD19 positive cells was plotted against the concentrations of test compounds to obtain a concentration response curve, and calculate an IC50 value as a measure of the potency of test compounds in the assay.

full-length human BTK, sequence (Q06187 whole entry): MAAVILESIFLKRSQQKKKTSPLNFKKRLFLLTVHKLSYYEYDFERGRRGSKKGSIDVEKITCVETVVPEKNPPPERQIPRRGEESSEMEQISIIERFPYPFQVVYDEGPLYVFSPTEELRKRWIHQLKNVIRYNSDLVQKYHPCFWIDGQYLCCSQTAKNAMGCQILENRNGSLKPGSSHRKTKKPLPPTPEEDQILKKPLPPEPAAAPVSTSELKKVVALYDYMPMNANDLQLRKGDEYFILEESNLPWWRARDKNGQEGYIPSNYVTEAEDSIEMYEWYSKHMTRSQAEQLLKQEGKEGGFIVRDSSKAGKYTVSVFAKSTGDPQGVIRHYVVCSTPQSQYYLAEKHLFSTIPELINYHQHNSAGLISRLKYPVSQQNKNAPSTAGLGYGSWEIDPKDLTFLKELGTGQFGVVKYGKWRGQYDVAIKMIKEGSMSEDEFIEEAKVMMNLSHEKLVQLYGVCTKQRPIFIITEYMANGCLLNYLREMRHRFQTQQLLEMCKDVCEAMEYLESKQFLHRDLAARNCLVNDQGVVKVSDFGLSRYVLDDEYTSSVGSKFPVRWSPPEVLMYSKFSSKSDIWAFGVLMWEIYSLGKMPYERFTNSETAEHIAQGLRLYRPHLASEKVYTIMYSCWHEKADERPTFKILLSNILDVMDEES

Row | IC50 [1] | Structure (SMILES) | IC50 [2]
1 | < 100 nM | CN1CC=C(c2ccc(-c3nc4c(-c5ccc(CNC(=O)c6noc(C(C)(C)C)n6)c(F)c5)ccnc4[nH]3)nc2)CC1 [Example 85, 5-tert-Butyl-N-[(2-fluoro-4-[2-[5-(1-methyl-1,2,3,6-tetrahydropyridin-4-yl)pyridin-2-yl]-3H-imidazo [4,5-b]pyridin-7-yl]phenyl)methyl]-1,2,4-oxadiazole-3-carboxamide; trifluoroacetic acid] | 100 to 1000 nM
2 | < 100 nM | Cn1cc(-c2nc3c(-c4cnc(CNC(=O)c5noc(C(C)(C)C)n5)c(F)c4)ccnc3[nH]2)cn1 [Example 12, 5-tert-Butyl-[1,2,4]oxadiazole-3-carboxylic acid {3-fluoro-5-[2-(1-methyl-1H-pyrazol-4-yl)-3H-imidazo[4,5-b]pyridin-7-yl]-pyridin-2-ylmethyl}-amide] | 100 to 1000 nM
3 | < 100 nM | O=C(c1ccc(-c2nc3c(-c4cccc(N5CCOc6cc(C7CC7)cc(F)c6C5=O)c4CO)ccnc3[nH]2)cc1)N1CCOCC1 [Example 1, 8-Cyclopropyl-6-fluoro-4-[2-(hydroxymethyl)-3-(2-[4-[(morpholin-4-yl)carbonyl]phenyl]-3H-imidazo [4,5-b]pyridin-7-yl)phenyl]-2,3,4,5-tetrahydro-1,4-benzoxazepin-5-one] | 1000 to 5000 nM
4 | < 100 nM | COc1cccc(-c2nc3c(-c4ccc(CNC(=O)c5ccc(C6CC6)cc5)c(F)c4)ccnc3[nH]2)c1 [Example 64, 4-Cyclopropyl-N-([2-fluoro-4-[2-(3-methoxyphenyl)-3H-imidazo[4,5-b]pyridin-7-yl]phenyl]methyl) benzamide] | 100 to 1000 nM
5 | < 100 nM | C=CC(=O)Nc1ccccc1-c1nc2nccc(-c3ccc(CNC(=O)c4nc(C(C)(C)C)no4)c(F)c3)c2[nH]1 [Example 160, 3-tert-butyl-N-[(2-fluoro-4-[2-[2-(prop-2-enamido)phenyl]-3H-imidazo[4,5-b]pyridin-7-yl]phenyl)methyl]-1,2,4-oxadiazole-5-carboxamide] | < 100 nM
6 | < 100 nM | Cn1cc(-c2nc3c(-c4cccc(N5CCc6cc(C7CC7)ccc6C5=O)c4CO)ccnc3[nH]2)cn1 [Example 7, 6-cyclopropyl-2-(2-(hydroxymethyl)-3-(2-(1-methyl-1H-pyrazol-4-yl)-3H-imidazo[4,5-b]pyridin-7-yl)phenyl)-3,4-dihydroisoquinolin-1(2H)-one] | 1000 to 5000 nM
7 | < 100 nM | CC(C)(C)c1nc(C(=O)NCc2ccc(-c3ccnc4[nH]c(C5=CCNCC5)nc34)cc2F)no1 [Example 134, 5-tert-Butyl-[1,2,4]oxadiazole-3-carboxylic acid 2-fluoro-4-[2-(1,2,3,6-tetrahydro-pyridin-4-yl)-3H-imidazo[4,5-b]pyridin-7-yl]-benzylamide] | 100 to 1000 nM
8 | < 100 nM | COc1cccc(-c2nc3c(-c4ccc(CNC(=O)c5noc(C(C)(C)C)n5)c(F)c4)ccnc3[nH]2)c1 [Example 73, 5-tert-Butyl-N-([2-fluoro-4-[2-(3-methoxyphenyl)-3H-imidazo[4,5-b]pyridin-7-yl]phenyl]methyl)-1,2,4-oxadiazole-3-carboxamide] | 100 to 1000 nM
9 | < 100 nM | Cc1c(NC(=O)c2ccc3c(c2)OCC3(C)C)cc(F)cc1-c1ccnc2[nH]c(-c3ccc(C(=O)N4CCOCC4)cc3)nc12 [Example 4, N-[5-Fluoro-2-methyl-3-(2-[4-[(morpholin-4-yl)carbonyl]phenyl]-3H-imidazo[4,5-b]pyridin-7-yl)phenyl]-3,3-dimethyl-2,3-dihydro-1-benzofuran-6-carboxamide] | 100 to 1000 nM
10 | < 100 nM | CC(C)(C)c1noc(C(=O)NCc2ccc(-c3ccnc4[nH]c(-c5ccc(N6CCC(F)(F)CC6)cn5)nc34)cc2F)n1 [Example 164, 3-tert-butyl-N-[(4-[2-[5-(4,4-difluoropiperidin-1-yl)pyridin-2-yl]-3H-imidazo[4,5-b]pyridin-7-yl]-2-fluorophenyl)methyl]-1,2,4-oxadiazole-5-carboxamide] | 100 to 1000 nM
